Source: US20160209428A1, “DIAGNOSTIC AND PREDICTIVE METABOLITE PATTERNS FOR DISORDERS AFFECTING THE BRAIN AND NERVOUS SYSTEM” (THE REGENTS OF THE UNIVERSITY OF CALIFORNIA, priority 2013, published 2016)

Columns and labels:
[1] = test system: maternal immune activation (MIA) mouse model; assay: Social approach (social preference), MIA model; assay type: in vivo
Description: To initiate the MIA model, pregnant dams were given two intraperitoneal injections of Poly(I:C) (Potassium salt; Sigma-Aldrich, St. Louis, Mo., USA, Cat no. P9582; >99% pure; <1% mononucleotide content). These were quantified by UV spectrophotometry. One unit (U) of poly(IC) was defined as 1 absorbance unit at 260 nm. Typically, 1U=12 μg of RNA. 0.25U/g [3 mg kg^−1] of poly(IC) was given on E12.5 and 0.125U g^−1 (1.5 mg kg^−1) on E17.5 as previously described. Contemporaneous control pregnancies were produced by timed matings and randomized assignment of pregnant dams to saline injection (5 μl g^−1 intraperitoneally (i.p.)) on E12.5 and E17.5.
Offspring of timed matings were weaned at 3-4 weeks of age into cages of two to four animals. No mice were housed in isolation. Only males were evaluated in these studies. Littermates were identified by ear tags and distributed into different cages in order to minimize litter and dam effects. To avoid chance differences in groups selected for single-dose treatment, the saline and poly(IC) exposure groups were each balanced according to their social approach scores at 2.25 months. […] Beginning 2 days later, behaviors were evaluated. […]
Social behavior in mice can be quantified as the time spent interacting with a novel (‘stranger’) mouse compared with the total time spent interacting with either a mouse or a novel inanimate object.

[2] = Suramin quantitation in plasma and brain tissues by LC-MS/MS; assay type: in vivo, mouse
Description: Offspring of timed matings were weaned at 3-4 weeks of age into cages of two to four animals. No mice were housed in isolation. Only males were evaluated in these studies. Littermates were identified by ear tags and distributed into different cages in order to minimize litter and dam effects. […] Beginning 2 days later, behaviors were evaluated.
Tissue samples (brainstem, cerebrum and cerebellum) were ground into powder under liquid nitrogen in a pre-cooled mortar. Powdered tissue (15-50 mg) was weighed and mixed with the internal standard trypan blue to a final concentration of 5 μM (pmol mg^−1) and incubated at room temperature for 10 min to permit metabolite interaction with binding proteins. Nine volumes of methanol:acetonitrile:H2O (43:43:16) pre-chilled to −20° C. was added to produce a final solvent ratio of 40:40:20, and the samples were deproteinated and macromolecules removed by precipitation on crushed ice for 30 min. The mixture was centrifuged at 16 000 g for 10 min at 4° C. and the supernatant was transferred to a new tube and kept at −80° C. for further LC-MS/MS (liquid chromatography-tandem mass spectrometry) analysis. For plasma, 90 μl was used, to which 10 μl of 50 μM stock of trypan blue was added to achieve an internal standard concentration of 5 μM. This was incubated at room temperature for 10 min to permit metabolite interaction with binding proteins, then extracted with 4 volumes (400 μl) of pre-chilled methanol:acetonitrile (50:50) to produce a final concentration of 40:40:20 (methanol:acetonitrile:H2O) and precipitated on ice for 10 min. Other steps were the same as for solid tissue extraction.
Ten microliters of extract were injected onto a Kinetix pentafluorophenyl column (150×2.1 mm, 2.6 μm; Phenomenex, Torrance, Calif., USA) held at 30° C. for chromatographic separation. The mobile phase A was water with 20 mM ammonium acetate (NH4OAC; pH 7) and mobile phase B was methanol with 20 mM NH4OAC (pH 7). […] The flow rate was 300 μl min^−1. All the samples were kept at 4° C. during analysis. […] The electrospray ionization source parameters were set as follows: source temperature 500° C.; curtain gas 30; ion source gas 1, 35; ion source gas 2 35; spray voltage −4500V. Analyst 1.6.1 was used for data acquisition and analysis. N=4-6 per tissue. Results are reported as means±s.e.m. in absolute μM (pmol μl^−1) concentration for plasma, and pmol mg^−1 wet weight for tissues.
After completing the behavioral studies described above, mass spectrometry was used to measure drug levels in plasma, cerebrum, cerebellum and brainstem following a 5-week period of drug washout.

[3] = 2 days after 20 mg kg^−1 i.p., control (Sal-Sur) or MIA (PIC-Sur) animals

**Q.** Which social abnormalities ([1]; 6.5-month-old MIA adults, single dose suramin 20 mg kg^−1 i.p.) does the source give for `Cc1ccc(C(=O)Nc2ccc(S(=O)(=O)O)c3cc(S(=O)(=O)O)cc(S(=O)(=O)O)c23)cc1NC(=O)c1cccc(NC(=O)Nc2cccc(C(=O)Nc3cc(C(=O)Nc4ccc(S(=O)(=O)O)c5cc(S(=O)(=O)O)cc(S(=O)(=O)O)c45)ccc3C)c2)c1` [Suramin, suramin] here?
**A.** Its social abnormalities is “completely reversed”.

**Q.** What about the “social behavior five weeks after suramin washout” value ([1]; MIA animals, 5 weeks after single dose) of the same molecule?
**A.** The value was “small residual benefit”.

**Q.** What about the brainstem suramin ([2]; 2 days after 20 mg kg^−1 i.p.) of the same molecule?
**A.** Its brainstem suramin is 5.15 pmol/mg.

**Q.** And the suramin in cerebellum [2, 3]?
**A.** The suramin in cerebellum was under 0.10 pmol mg^−1 wet weight.

**Q.** What about the suramin in cerebrum [2, 3] of the same molecule?
**A.** The suramin in cerebrum was under 0.10 pmol mg^−1 wet weight.

**Q.** What about the “suramin in any tissue (plasma, cerebrum, cerebellum, brainstem)” value ([2]; after 5 weeks of drug washout) of the same molecule?
**A.** The value was “No suramin was detected”.

**Q.** What about the concentration at 2 days ([2]; male, mouse, plasma, ip, 2 days after 20 mg kg^−1 i.p.) of the same molecule?
**A.** Its concentration at 2 days is 7.64 µM.
